tested on: BuGH3MLG; assay: p-nitrophenol release, absorbance […] nm; type: biochemical, Bacteroides uniformis; details: sodium phosphate pH 5.7, 37 °C

Structure (SMILES)	Km
O=[N+]([O-])c1ccc(O[C@@H]2O[C@H](CO)[C@@H](O[C@@H]3O[C@H](CO)[C@@H](O)[C@H](O)[C@H]3O)[C@H](O)[C@H]2O)cc1 [p-Nitrophenyl β-D-cellobioside]	640 ± 90 µM
O=[N+]([O-])c1ccc(O[C@@H]2O[C@H](CO)[C@@H](O)[C@H](O[C@@H]3O[C@H](CO)[C@@H](O)[C@H](O)[C@H]3O)[C@H]2O)cc1 [p-Nitrophenyl β-D-laminaribioside]	880 ± 160 µM
O=[N+]([O-])c1ccc(O[C@@H]2O[C@H](CO)[C@@H](O)[C@H](O)[C@H]2O)cc1 [p-Nitrophenyl-β-D-glucopyranoside]	530 ± 120 µM
CC(=O)N[C@H]1[C@H](Oc2ccc([N+](=O)[O-])cc2)O[C@H](CO)[C@@H](O)[C@@H]1O [p-nitrophenyl-N-acetyl glucosaminide]	2900 ± 700 µM

tested on: BuGH3MLG; assay: PAHBAH reducing sugar assay, […] nm; type: biochemical, Bacteroides uniformis; details: 30 min hydrolysis

Structure (SMILES)	Km
OC[C@H]1O[C@@H](O[C@H]2[C@H](O)[C@@H](O)C(O)O[C@@H]2CO)[C@H](O)[C@@H](O)[C@@H]1O (stereo partly shown) [Cellobiose]	7.4 ± 1.24 µM
OC[C@H]1O[C@@H](O[C@H]2[C@H](O)[C@@H](O)[C@H](O[C@H]3[C@H](O)[C@@H](O)[C@H](O[C@H]4[C@H](O)[C@@H](O)C(O)O[C@@H]4CO)O[C@@H]3CO)O[C@@H]2CO)[C@H](O)[C@@H](O)[C@@H]1O (stereo partly shown) [Cellotetraose]	56.9 ± 9 µM
OC[C@H]1O[C@@H](O[C@H]2[C@H](O)[C@@H](O)[C@H](O[C@H]3[C@H](O)[C@@H](O)C(O)O[C@@H]3CO)O[C@@H]2CO)[C@H](O)[C@@H](O)[C@@H]1O (stereo partly shown) [Cellotriose]	26.1 ± 5.5 µM
OC[C@H]1O[C@@H](O[C@H]2[C@H](O)[C@@H](O)[C@H](O[C@H]3[C@H](O)[C@@H](O)[C@H](O[C@H]4[C@H](O)[C@@H](CO)OC(O)[C@@H]4O)O[C@@H]3CO)O[C@@H]2CO)[C@H](O)[C@@H](O)[C@@H]1O (stereo partly drawn) [G4G4G3G, β-d-Glc^iv(1→4)β-d-Glc^iii(1→4)β-d-Glc^ii(1→3)-d-Glc^i]	28.2 ± 6.2 µM
OC[C@H]1O[C@@H](OC[C@H]2OC(O)[C@H](O)[C@@H](O)[C@@H]2O)[C@H](O)[C@@H](O)[C@@H]1O (stereo partly shown) [Gentiobiose]	241 ± 16.2 µM
OC[C@H]1O[C@@H](O[C@H]2[C@H](O)[C@@H](CO)OC(O)[C@@H]2O)[C@H](O)[C@@H](O)[C@@H]1O (stereo partly shown) [Laminaribiose]	7.1 ± 1.2 µM
OC[C@H]1O[C@@H](O[C@@H]2[C@@H](O)[C@H](O[C@@H]3[C@@H](O)[C@H](O[C@H]4[C@H](O)[C@@H](CO)OC(O)[C@@H]4O)O[C@H](CO)[C@H]3O)O[C@H](CO)[C@H]2O)[C@H](O)[C@@H](O)[C@@H]1O (stereo partly shown) [Laminaritetrose]	9.9 ± 1.1 µM
OC[C@H]1O[C@@H](O[C@@H]2[C@@H](O)[C@H](O[C@H]3[C@H](O)[C@@H](CO)OC(O)[C@@H]3O)O[C@H](CO)[C@H]2O)[C@H](O)[C@@H](O)[C@@H]1O (stereo partly shown) [Laminaritriose]	7.5 ± 0.5 µM
OC[C@H]1O[C@@H](O[C@H]2[C@H](O)[C@@H](O)[C@H](O[C@H]3[C@H](O)[C@@H](CO)OC(O)[C@@H]3O)O[C@@H]2CO)[C@H](O)[C@@H](O)[C@@H]1O (stereo partly drawn) [β-D-cellobiosyl-glucose, β-d-Glc^iii(1→4)β-d-Glc^ii(1→3)-d-Glc^i]	41.3 ± 7 µM
